Data reported in ChEMBL document CHEMBL5241110, “Medicines for millions of patients” (RSC Med Chem, 2022).

Key:
Pancuronium = assay: Binding affinity to pancuronium
Rocuronium = assay: Binding affinity to rocuronium by ITC method

| Compound | Ka (Pancuronium) [M⁻¹] | Ka (Rocuronium) |
| --- | --- | --- |
| CC(=O)O[C@@H]1C[C@H]2CCC3C4C[C@H]([N+]5(C)CCCCC5)[C@H](OC(C)=O)[C@@]4(C)CCC3[C@@]2(C)C[C@@H]1[N+]1(C)CCCCC1 (some centres not stated) | 167 |  |
| O=C(O)CCSC[C@H]1O[C@@H]2O[C@H]3[C@H](O)[C@@H](O)[C@@H](O[C@H]4[C@H](O)[C@@H](O)[C@@H](O[C@H]5[C@H](O)[C@@H](O)[C@@H](O[C@H]6[C@H](O)[C@@H](O)[C@@H](O[C@H]7[C@H](O)[C@@H](O)[C@@H](O[C@H]8[C@H](O)[C@@H](O)[C@@H](O[C@H]9[C@H](O)C(O)[C@@H](O[C@H]1[C@H](O)[C@H]2O)O[C@@H]9CSCCC(=O)O)O[C@@H]8CSCCC(=O)O)O[C@@H]7CSCCC(=O)O)O[C@@H]6CSCCC(=O)O)O[C@@H]5CSCCC(=O)O)O[C@@H]4CSCCC(=O)O)O[C@@H]3CSCCC(=O)O (some centres not stated) |  | 1.05 10^7 M^-1 |
